{"source": "patent US5760001A", "about": "“Cytokine restraining agents and methods of use in pathologies and conditions associated with altered cytokine levels” (Trega Biosciences, Inc., priority 1995, dated 1998)", "key": {"[1]": {"test_system": "inducible nitric oxide synthase (INOS)", "experiment": "Inducible nitric oxide synthase induction in rat aorta smooth muscle cells (cGMP RIA)", "type": "cell-based", "settings": "RASMC induced with LPS, IL-1β or TNF-α; EX-2 0.1 or 1 μM", "procedure": "Rat aorta smooth muscle cells (RASMC) were isolated from male rats (325-350 g) using the previously published procedures of Gelsterfer et al., Circ. Res. 62:749-756 (1988), which is incorporated herein by reference. Cells were positively identified as smooth muscle cells by indirect immunofluorescent staining for anti-α-actin, using a mouse anti-α-actin antibody and anti-mouse IgG FITC conjugate. Cells were grown in T-75 tissue culture flasks (Corning Delbelco's Glass, Inc.; Corning, N.Y.) in 50% F12 and 50% Delbelco's Modified Eagle Medium (DMEM) supplemented with 10% bovine serum, 0.2 g/l L-glutamine, penicillin (100 U/ml) and streptomycin (0.1 mg/ml).\nCells between passages 1-5 were pretreated with one of the following: vehicle, LPS (1 μg/ml), IL-1β (10 U/ml), or TNF-α (100 U/ml) for 6 hr. […] Accumulation of cGMP was determined following exposure to 0.3 mM 3-isobutyl-1-methyl xanthine (IBMX) in the presence or absence of 1 mM L-arginine. […] The HCl extract was analyzed for cGMP by RIA and the NaOH-solubilized cell remnants were used for protein determination.\nMale Sprague-Dawley rats were anesthetized with 55 mg/kg pentobarbital IP. […] RASMC were incubated with plasma from control or EX-2-treated animals and the ability of plasma components to inhibit the induction of INOS by LPS or IL-1β was determined as above. […]"}, "[2]": {"test_system": "adult female Balb/c mice", "experiment": "Carageenan-induced paw swelling", "type": "in vivo", "settings": "1 μg/mouse; measured at the 2 hr time point", "procedure": "Carageenan-induced paw swelling was induced using a modification of the methods of Hiltz and Lipton, Peptides 11:979-982 (1990); Vinegar et al., Fed. Proc. 46:118-1.26 (1987); and Vinegar et al., J. Pharmacol. Expt. Therap. 166:96-103 (1969), each of which is incorporated herein by reference. Briefly, adult female Balb/c mice were anesthetized by IP injection of 7 mg/kg ketoamine and 0.6 mg/kg rompun. Foot pad thickness was measured using a spring loaded micrometer (Swiss Precision Instruments). Foot pad thickness was expressed in units of 1/100 inch. After baseline measurements were obtained, mice were injected into a hind foot pad with either 0.2 ml physiologic saline (control) or varying doses of EX-2 or EX-3 in 0.2 ml saline (treated). The first injection was followed immediately by injection of 0.02 ml of 0.15% κ-carageenan (Sigma Chemical Co.; St. Louis, Mo.).\nHind foot pad thickness was measured hourly for six hr, the change in thickness was determined and the percent reduction in swelling due to treatment with EX-2 was calculated."}, "[3]": {"test_system": "adult female Balb/c mice", "experiment": "LPS-induced lethality (IP dosing)", "type": "in vivo", "settings": "11 × 300 μg/mouse IP (3.3 mg), every 4 hr; 0.6 mg LPS; vs control mice", "procedure": "These experiments were performed based on information reported by Rivier et al., Endocrinology 125:2800-2805 (1989), which is incorporated herein by reference. Adult female Balb/c mice were provided food and water ad libitum. Mice were injected IP every four hr for 40 hr with 30 to 300 μg EX-2, EX-3 or EX-4 in 0.2 ml saline (treated group) or with 0.2 ml saline, alone (control group) (10 mice per group). Immediately following the first injection, 0.6 mg LPS endotoxin in 0.2 ml saline was administered to each mouse. Following LPS injection, EX-2 or saline was administered to the treated mice or the control mice, respectively, every 4 hr for 36 hr."}, "[4]": {"test_system": "female Balb/c mice", "experiment": "Arachidonic acid-induced ear swelling", "type": "in vivo", "settings": "100 μg/mouse IP 30 min prior to AA; 60 min after AA application", "procedure": "Experiments were performed using female Balb/c mice weighing 18-23 grams. Saline or 100 μg EX-2 or EX-3 was administered IP, 30 min prior to topical application of arachidonic acid (AA). A 10 μl pipet was used to apply 10 μl AA solution (100 mg/ml ethanol; Calbiochem-Novabiochem; San Diego Calif.) to the inner and outer surfaces of the right ear of each mouse. Ten μl ethanol, alone, was applied to the inner and outer surface of the left ear of each mouse.\nEar thickness was measured with a hand-held spring loaded caliper immediately before and 60 min after AA application. Increase in ear thickness was calculated by subtracting the change observed in the control ear from the change observed in AA-treated ear. The value for each group (saline and control) is the average of the swelling observed in the individual mice in each group. The percent reduction of swelling is based on the swelling observed in the saline control group."}}}
{"substance": "Ac-Nle-Gln-His-(D)Phe-Arg-(D)Trp-Gly-NH2 [EX-2]", "values": [{"measurement": "INOS: cGMP (pmol/100 mg/15 min), % Reduction of induced increase", "setting": "[1]", "value": 60, "unit": "%"}, {"measurement": "Reduction in Carageenan-induced Paw Swelling", "setting": "[2]", "value": 45, "unit": "%"}, {"measurement": "Inhibition of LPS-induced Lethality (increase in survival)", "setting": "[3]", "value": 83, "unit": "%"}, {"measurement": "Reduction in arachidonic acid-induced Ear Swelling", "setting": "[4]", "value": 72, "unit": "%"}]}
